Measured values published in patent publication US10626145B2, “Peptide with anti-obesity and anti-diabetes activity and use thereof” (CAREGEN CO., LTD., priority 2015, dated 2020).

What was measured:
[1] = tested on: 3T3-L1 cells (pre-adipocytes); experiment: Suppression of lipid accumulation in pre-adipocytes (Oil Red O staining); type: cell-based, mouse; settings: 3T3-L1, various concentrations, differentiation induced for 10 days
Experimental: The pre-adipocytes 3T3-L1 cells were grown to confluence and then incubated for two days with various concentrations of the peptides in a differentiation medium containing 10 μg/ml insulin, 0.1 μM dexamethasone, and 0.5 μM IBMX. The medium was exchanged every two days with a medium containing 10 μg/ml insulin. After differentiation was induced for 10 days, the generation of droplet in the cells was examined by Oil Red O staining. The prepared 3T3-L1 adipocytes were washed with PBS, fixed with 3.7% formalin for one hour, and washed with 60% isopropanol. The resulting cells were dyed with Oil Red O reagent at room temperature for 20 min. After removal of the Oil Red O reagent, the cells were washed three times with distilled water, and observed under a phase-contrast microscope. For quantitative analysis, fats were extracted from the cells using 100% isopropanol, and the cells were transferred in an amount of 200 μl/well into 96-well plates and measured for optical density at 500 nm using an ELISA reader.

aP2 = experiment: RT-PCR expression of adipogenic marker aP2 in 3T3-L1; type: cell-based, mouse; settings: for expression level of adipogenic marker aP2 (individual peptides): 3T3-L1, incubated for three days
Experimental: (§1) 3T3-L1 cells (pre-adipocytes) were seeded at a density of 3×10^5 cells/well into 6-well plates. […] Thereafter, the cells were harvested and treated with an RNA extraction solution (Easy Blue, Intron) to prepare RNA from which cDNA was then synthesized using an RT premix (Intron). PCR was performed using primers for […] markers (PPARγ, ACC, and aP2), and a PCR premix (Intron).
(§2) Target-specific primer sequences for PCR of adipogenic markers were as follows: PPARγ forward primer sequence, 5′-[…]-3′ and PPARγ reverse primer, 5′-[…]-3′ (annealing temperature, 60° C.); ACC forward primer sequence, 5′-[…]-3′ and ACC reverse primer, 5′-[…]-3′ (annealing temperature, 60° C.); aP2 forward primer sequence, 5′-[…]-3′ and aP2 reverse primer, 5′-[…]-3′ (annealing temperature, 60° C.)
(§3) PCR products were each loaded in a volume of 5 μl into a 1% agarose gel, and electrophoresed, followed by identifying bands in a Gel-Doc.

[2] = tested on: DB/DB diabetes-induced mice; experiment: Blood sugar over time in DB/DB diabetes-induced mice given individual peptides; type: in vivo, mouse; settings: starved 16 hours, fed 30 min, then peptide administered
Experimental: In addition, after starvation for 16 hours, DB/DB diabetes-induced mice were fed for 30 min and then administered with the peptides. Blood sugar levels were measured over times.

IGF-1 = experiment: Western blotting of IGF-1 expression in 3T3-L1; type: cell-based, mouse; settings: 3T3-L1, 10 ng-1 μg/ml, 14 days; dose-dependent
Experimental: (§4) 3T3-L1 cells (pre-adipocytes) were seeded at a density of 3×10^5 cells/well into 6-well plates and grown for 24 hours. Subsequently, the cells were incubated with various concentrations (10 ng-1 μg/ml) of the peptides for 14 days in a 37° C. incubator. Proteins were extracted from cell lysates which were obtained by treatment with cell lysis buffer, quantitatively analyzed, and subjected to Western blotting using an anti-IGF-1 antibody, which is an antibody against the lipolytic marker, and an insulin antibody (Santa Cruz Biotechnology, USA).

insulin = experiment: Western blotting of insulin expression in 3T3-L1; type: cell-based, mouse; settings: 3T3-L1, 10 ng-1 μg/ml, 14 days; dose-dependent
Experimental: as §4

PPARγ = experiment: RT-PCR expression of adipogenic marker PPARγ in 3T3-L1; type: cell-based, mouse; settings: 3T3-L1, three days; complex 0.1, 1, 10 μg/ml; TNFα 100 ng/ml
Experimental: as §1, §2, §3

ACC = experiment: RT-PCR expression of adipogenic marker ACC in 3T3-L1; type: cell-based, mouse; settings: 3T3-L1, three days; complex 0.1, 1, 10 μg/ml; TNFα 100 ng/ml
Experimental: as §1, §2, §3

[3] = tested on: DIO (diets induced obesity) models; experiment: Weight loss and adipogenesis suppression in high-fat diet-fed animal (DIO), 12 weeks; type: in vivo, mouse; settings: for Weight: intraperitoneal injection; for Weight (%): relative to initial weight
Experimental: Models DIO (diets induced obesity), which had become obese by feeding high-fat diets thereto, were used for anti-obesity experiments in which TNFα 5 μg/ml was used as a positive control. For a control, a general diet, not a high-fat diet, was fed. In the experiment, a high-fat diet was fed for 12 weeks while the peptide complex or the positive control was applied. During the experiment, the weight was monitored. TNFα and the anti-obesity compounds were intraperitoneally injected at PM 3-4 o'clock every week for 12 weeks. Weights and meal sizes were measured just before the initial injection and then regularly at intervals of one week. Blood samples were taken from tail veins after the experiments of drug injection and measured for blood sugar levels, using Accu-Check Active (Roche) and analyzed for cholesterol levels, using Cholesterol calculation Kit (BioVision). Adipose tissues are divided into white fat and brown fat by color and into subcutaneous fat, abdominal fat, mesentery fat (visceral fat), and epididymal fat by tissue. After lipoectomy, the fats thus obtained from the tissues were observed. For histological examination, the fats were fixed with 10% neutral buffered formalin, embedded in paraffin blocks, cut into 5 μm-thick sections, and dyed with hematoxylin and eosin. To analyze the phosphorylation of the lipolytic marker HSL, fluorescent staining was carried out with an anti-pHSL antibody. A tissue sample was made, mounted on glycerine jell mounting media, and covered with a cover glass. The tissues were observed under a microscope (Nikon, TS100), with a built-in digital camera taking images thereof.

ASYLPHPWFS (Peptide 5) [SEQ ID NO: 5]
extent of fat (lipid) accumulation in cells, Oil red O staining [1]: decreased | expression level of adipogenic marker aP2 (individual peptides) (aP2): decreased | blood sugar levels over time [2]: decrease in a time-dependent manner

KGASTGWMA (Peptide 3) [SEQ ID NO: 3]
extent of fat (lipid) accumulation in cells, Oil red O staining [1]: decreased | expression level of adipogenic marker aP2 (individual peptides) (aP2): decreased | blood sugar levels over time [2]: decrease in a time-dependent manner

NH2-Leu-Lys-Thr-Arg-Asn-COOH (H-LKTRN-OH) [SEQ ID NO: 1]
extent of fat (lipid) accumulation in cells, Oil red O staining [1]: decreased | expression level of adipogenic marker aP2 (individual peptides) (aP2): decreased | blood sugar levels over time [2]: decrease in a time-dependent manner

SDLRRLEMYS (Peptide 7) [SEQ ID NO: 7]
expression of IGF-1 (IGF-1): increased | expression of insulin (insulin): increased

TNFα
expression of adipogenic marker aP2 (aP2; 3T3-L1, three days, complex 0.1, 1, 10 μg/ml, TNFα 100 ng/ml): decrease | expression of adipogenic marker PPARγ (PPARγ): decrease | expression of adipogenic marker ACC (ACC): decrease | Weight ([3]; 0 w): 22.41 g | Weight (%) ([3]; 0 w): 100% | Weight ([3]; 1 w): 23 g | Weight (%) ([3]; 1 w): 102.6% | Weight ([3]; 2 w): 26.12 g | Weight (%) ([3]; 2 w): 116.6% | Weight ([3]; 3 w): 27.45 g | Weight (%) ([3]; 3 w): 122.5% | Weight ([3]; 4 w): 30.51 g | Weight (%) ([3]; 4 w): 136.1% | Weight ([3]; 5 w): 32.76 g | Weight (%) ([3]; 5 w): 146.2% | Weight ([3]; 6 w): 33.49 g | Weight (%) ([3]; 6 w): 149.4% | Weight ([3]; 7 w): 35.14 g | Weight (%) ([3]; 7 w): 156.8% | Weight ([3]; 8 w): 37.15 g | Weight (%) ([3]; 8 w): 165.8% | Weight ([3]; 9 w): 38.97 g | Weight (%) ([3]; 9 w): 173.9% | Weight ([3]; 10 w): 40.39 g | Weight (%) ([3]; 10 w): 180.2% | Weight ([3]; 11 w): 41.35 g | Weight (%) ([3]; 11 w): 184.5% | Weight ([3]; 12 w): 43.91 g | Weight (%) ([3]; 12 w): 195.9%
